“Also recorded” adds a separate entry of the source. Read-outs that look alike come from different tables or passages of the source.
Test system: dsDNA
Assay: Real-time DNA melting assay (PicoGreen/ROX melting curves)
Description: Components of this assay include 1) a reaction vessel free from DNase and RNase, 2) a dsDNA-specific dye, 3) a reference dye 4) dsDNA, and 5) the genotoxicant(s). […] As the sample is heated in the real-time thermocycler, the dsDNA melts becoming single-stranded. Single-stranded DNA no longer supports PicoGreen fluorescence, thus the relative amount of PicoGreen to ROX fluorescence declines proportionately to the loss of DNA base-pairing. As will be understood by the skilled artisan upon reading this disclosure, alternative fluorometric dyes or spectrophotometric dyes can be used in the method of the present invention.
In one embodiment, the raw dsDNA-specific fluorescence is normalized to the corresponding reference fluorescence at each temperature point to correct for decreased dye fluorescence resulting directly from the increasing solution temperature. This normalized fluorescence is then graphed as a function of temperature to produce the melting curve. Initial fluorescence from this curve is used to determine the extent of double-strand breakage. The first derivative of this melting curve is then plotted and used to determine both the initial melting temperature and the melting rate across the entire temperature gradient. […] A schematic representation of the typical melting curves is shown in FIG. 1 wherein, with increasing pH, salinity, or temperature, DNA dissociation increases resulting in a decrease in relative fluorescence.
The ability to detect DNA-damaging agents was first examined under conditions under which only the pharmaceutical agent was allowed to interact with the dsDNA.
(§1) Samples were analyzed using an ABI 7300 real time thermocycler over a temperature range of 4° C. to 99° C. Data is presented as PicoGreen fluorescence normalized to ROX.
as §1
Samples were analyzed over a temperature range of 4° C. to 99° C. using an ABI 7300 real time thermocycler. Data is presented as PicoGreen fluorescence normalized to ROX. […] When single strand breaks are in close proximity, double strand breaks can result.

[1] = dsDNA 1,000 ng/ml treated with increasing concentrations of compound, PicoGreen normalized to ROX, 4° C. to 99° C.

Question: Which initial melting temperature does the source give for `CC[C@H](c1ccc(O)cc1)[C@@H](CC)c1ccc(O)cc1` [hexestrol] here?
Answer: Its initial melting temperature is “decrease in the initial melting temperature”.

Question: How did the initial fluorescence [1] turn out when `C[C@]12CC[C@@H]3c4cc(O)c(O)cc4CC[C@H]3[C@@H]1CC[C@@H]2O` [2-hydroxyestradiol] was run?
Answer: Its initial fluorescence is “increase in initial fluorescence”.

Question: What about the initial melting slope [1] of the same molecule?
Answer: The initial melting slope was “increase in initial melting slope”.

Question: For `CC[C@@]1(O)C(=O)OCc2c1cc1n(c2=O)Cc2cc3ccccc3nc2-1` [camptothecin], which “effect on DNA melting curves” value (dsDNA 1,000 ng/ml treated with non-genotoxic concentrations, PicoGreen normalized to ROX, 4° C. to 99° C.) is on record?
Answer: Its value is “lack of effect; also recorded: does not alter DNA melting”.

Question: Which initial melting temperature (dsDNA 1,000 ng/ml treated with increasing concentrations of compound, PicoGreen fluorescence normalized to ROX, 4° C. to 99° C.) does the source give for `O=C1C(=O)c2ccccc2-c2ccccc21` [phenanthrenequinone] here?
Answer: Its initial melting temperature is “increase in the initial melting temperature”.
